Assay results: patent publication US4172891A, “Cephalosporins” (Takeda Chemical Industries, Inc., priority 1976, dated 1979)
In brackets after ≈: the same amount, converted by molar mass. Where two headings read alike, the source gives them in different places.

Tests used:
E. coli NIHJ = assay: Minimum Inhibitory Concentration, agar dilution, E. coli NIHJ; format: cell-based; details: Escherichia coli, read-out: Minimum Inhibitory Concentration
Excerpt: (§1) […]. | Minimum Inhibitory Concentrations (mcg/ml, agar dilution)

E. coli O-111 = assay: Minimum Inhibitory Concentration, agar dilution, E. coli O-111; format: cell-based; details: Escherichia coli
Excerpt: (§2) Following each example is a tabulation of the minimal inhibitory concentrations (MIC) of the present compound [I] obtained in accordance with the particular example against several representative gram-negative bacteria and the corresponding concentrations of cephaloridine [7-(2-thienylacetamido)-3-(1-pyridyl)methyl-3-cephem-4-carboxylic acid betaine] and cefazolin [sodium 7-(1H-tetrazol-1-yl)acetamido-3-(2-methyl-1,3,4-thiadiazol-5-yl)thiomethyl-3-cephem-4-carboxylate], both of which are typical cephalosporins commercially available and clinically accepted nowadays [The New England Journal of Medicine 294, 24 (1976) and Journal of Pharmaceutical Science 64, 1899 (1975)]. There are also shown the effective doses of the typical compounds of this invention on the mice infected with Escherichia coli in comparison with that of cephaloridine.
Minimum Inhibitory Concentrations (mcg/ml, agar dilution)

E. coli T-7 = assay: Minimum Inhibitory Concentration, agar dilution, E. coli T-7; format: cell-based; details: Escherichia coli
Excerpt: as §1

K. pneumoniae DT = assay: Minimum Inhibitory Concentration, agar dilution, K. pneumoniae DT; format: cell-based; details: Klebsiella pneumoniae, read-out: Minimum Inhibitory Concentration
Excerpt: as §1

K. pneumoniae GN 3835 = assay: Minimum Inhibitory Concentration, agar dilution, K. pneumoniae GN 3835; format: cell-based; details: Klebsiella pneumoniae
Excerpt: as §1

P. vulgaris IFO 3988 = assay: Minimum Inhibitory Concentration, agar dilution, P. vulgaris IFO 3988; format: cell-based; details: Proteus vulgaris
Excerpt: as §1

P. mirabilis GN 4359 = assay: Minimum Inhibitory Concentration, agar dilution, P. mirabilis GN 4359; format: cell-based; details: Proteus mirabilis
Excerpt: as §1

P. morganii IFO 3168 = assay: Minimum Inhibitory Concentration, agar dilution, P. morganii IFO 3168; format: cell-based, Proteus morganii; details: Morganella morganii
Excerpt: as §1

P. rettgeri 8(TNO 336) = assay: Minimum Inhibitory Concentration, agar dilution, P. rettgeri 8(TNO 336); format: cell-based, Proteus rettgeri; details: Providencia rettgeri
Excerpt: as §1

P. rettgeri GN 4733 = assay: Minimum Inhibitory Concentration, agar dilution, P. rettgeri GN 4733; format: cell-based, Proteus rettgeri; details: Providencia rettgeri
Excerpt: as §1

Cit. freundii GN 99 = assay: Minimum Inhibitory Concentration, agar dilution, Cit. freundii GN 99; format: cell-based; details: Citrobacter freundii
Excerpt: as §1

Cit. freundii GN 1706 = assay: Minimum Inhibitory Concentration, agar dilution, Cit. freundii GN 1706; format: cell-based; details: Citrobacter freundii
Excerpt: as §1

Ent. cloacae IFO 12937 = assay: Minimum Inhibitory Concentration, agar dilution, Ent. cloacae IFO 12937; format: cell-based; details: Enterobacter cloacae
Escherichia coli O-111 = assay: Comparative protection test on infected mice; format: in vivo; details: O111, sc, 168 h; male ICR/SLC mice infected intraperitoneally with Escherichia coli O-111; single subcutaneous dose immediately after challenge; 7 days observation
Excerpt: as §2
Comparative protection tests of the compounds of this
invention and cephaloridine on infected mice
*Test animals: male mice (ICR/SLC) 5 mice per group per single dose
Infection: intraperitoneally with Escherichia coli O-111
Administration: a single subcutaneous dose immediately after challenge
Observation period: 7 days

[1] = O111, E. coli O-111, agar dilution, read-out: Minimum Inhibitory Concentration
[2] = T7, read-out: Minimum Inhibitory Concentration
[3] = GN3835, read-out: Minimum Inhibitory Concentration
[4] = IFO3988, read-out: Minimum Inhibitory Concentration
[5] = GN4359, read-out: Minimum Inhibitory Concentration
[6] = IFO3168, read-out: Minimum Inhibitory Concentration
[7] = read-out: Minimum Inhibitory Concentration, P. rettgeri 8(TNO 336)
[8] = GN4733, read-out: Minimum Inhibitory Concentration
[9] = GN99, read-out: Minimum Inhibitory Concentration
[10] = GN1706, read-out: Minimum Inhibitory Concentration
[11] = T7, E. coli T-7, agar dilution, read-out: Minimum Inhibitory Concentration
[12] = GN3835, K. pneumoniae GN 3835, agar dilution, read-out: Minimum Inhibitory Concentration
[13] = IFO3988, P. vulgaris IFO 3988, agar dilution, read-out: Minimum Inhibitory Concentration
[14] = IFO3168, P. morganii IFO 3168, agar dilution, read-out: Minimum Inhibitory Concentration
[15] = P. rettgeri 8(TNO 336), read-out: Minimum Inhibitory Concentration
[16] = GN4733, P. rettgeri GN 4733, agar dilution, read-out: Minimum Inhibitory Concentration
[17] = IFO12937, Ent. cloacae IFO 12937, agar dilution, read-out: Minimum Inhibitory Concentration
[18] = GN99, Cit. freundii GN 99, agar dilution, read-out: Minimum Inhibitory Concentration
[19] = GN1706, Cit. freundii GN 1706, agar dilution, read-out: Minimum Inhibitory Concentration
[20] = K. pneumoniae DT, agar dilution
[21] = GN4359, P. mirabilis GN 4359, agar dilution, read-out: Minimum Inhibitory Concentration

SMILES	MIC (E. coli O-111; [1]) [µg/mL]	MIC (K. pneumoniae DT) [µg/mL]	MIC (P. mirabilis GN 4359; [5]) [µg/mL]	MIC (E. coli NIHJ; E. coli NIHJ, agar dilution) [µg/mL]	MIC (E. coli T-7; [11]) [µg/mL]	MIC (K. pneumoniae GN 3835; [12]) [µg/mL]	MIC (P. vulgaris IFO 3988; [13]) [µg/mL]	MIC (P. morganii IFO 3168; [14]) [µg/mL]	MIC (P. rettgeri 8(TNO 336); [15]) [µg/mL]	MIC (P. rettgeri GN 4733; [16]) [µg/mL]	MIC (Ent. cloacae IFO 12937; [17]) [µg/mL]	MIC (Cit. freundii GN 99; [18]) [µg/mL]	MIC (Cit. freundii GN 1706; [19]) [µg/mL]	ED50 (Escherichia coli O-111) [mg/kg]	MIC (K. pneumoniae DT; [20]) [µg/mL]	MIC (P. mirabilis GN 4359; [21]) [µg/mL]	also measured
Cc1nnc(SCC2=C(C(=O)[O-])N3C(=O)C(NC(=O)Cn4cnnn4)[C@H]3SC2)s1.[Na+] (some centres unmarked) [Cefazolin, sodium 7-(1H-tetrazol-1-yl)acetamido-3-(2-methyl-1,3,4-thiadiazol-5-yl)thiomethyl-3-cephem-4-carboxylate, reference compound]	1.56	1.56	3.13														MIC (E. coli NIHJ): 1.56 µg/mL; MIC (E. coli T-7; [2]): > 100 µg/mL; MIC (K. pneumoniae GN 3835; [3]): 12.5 µg/mL; MIC (P. vulgaris IFO 3988; [4]): 3.13 µg/mL; MIC (P. morganii IFO 3168; [6]): > 100 µg/mL; MIC (P. rettgeri 8(TNO 336); [7]): 0.2 µg/mL; MIC (P. rettgeri GN 4733; [8]): > 100 µg/mL; MIC (Cit. freundii GN 99; [9]): 50 µg/mL; MIC (Cit. freundii GN 1706; [10]): > 100 µg/mL
O=C(Cc1cccs1)N[C@@H]1C(=O)N2C(C(=O)[O-])=C(C[n+]3ccccc3)CS[C@H]12 [Cephaloridine, 7-(2-thienylacetamido)-3-(1-pyridyl)methyl-3-cephem-4-carboxylic acid betaine, reference compound]	3.13 (≈ 7.53 µM)	3.13 (≈ 7.53 µM)	3.13 (≈ 7.53 µM)	6.25 (≈ 15 µM)	> 100	50 (≈ 120 µM)	6.25 (≈ 15 µM)	> 100	1.56 (≈ 3.75 µM)	> 100	> 100	50 (≈ 120 µM)	> 100	2.6			
CC(=O)OCC1=C(C(=O)O)N2C(=O)C(NC(=O)Cc3csc(=N)n3O)C2SC1 (centres unmarked) [Example 1, sodium 7-[2-(2-imino-3-hydroxy-4-thiazolin-4-yl)acetamido]-3-acetoxymethyl-3-cephem-4-carboxylate]	0.1			0.2	3.13	0.2	0.39	0.39	≤ 0.03	0.1	12.5	1.56	3.13	0.075	0.1	0.2	
Cn1nnnc1SCC1=C(C(=O)O)N2C(=O)C(NC(=O)Cc3csc(=N)n3O)C2SC1 (centres unmarked) [Example 5, sodium 7-[2-(2-imino-3-hydroxy-4-thiazolin-4-yl)acetamido]-3-(1-methyltetrazol-5-yl) thiomethyl-3-cephem-4-carboxylate]	≤ 0.03			0.05	1.56	0.1	0.2	0.78	≤ 0.03	0.05	6.25	0.39	0.78		0.05	0.1	
Cn1c(CO)nnc1SCC1=C(C(=O)[O-])N2C(=O)C(NC(=O)Cc3csc(=N)n3O)[C@H]2SC1.[Na+] (some centres unmarked) [Example 8, sodium 7-[2-(2-imino-3-hydroxy-4-thiazolin-4-yl)acetamido]-3-(3-hydroxymethyl-4-methyl-1,2,4-triazol-5-yl)thiomethyl-3-cephem-4-carboxylate]	≤ 0.2	≤ 0.2	≤ 0.2														MIC (E. coli NIHJ): ≤ 0.2 µg/mL; MIC (E. coli T-7; [2]): 1.56 µg/mL; MIC (K. pneumoniae GN 3835; [3]): ≤ 0.2 µg/mL; MIC (P. vulgaris IFO 3988; [4]): 0.39 µg/mL; MIC (P. morganii IFO 3168; [6]): ≤ 0.2 µg/mL; MIC (P. rettgeri 8(TNO 336); [7]): ≤ 0.2 µg/mL; MIC (P. rettgeri GN 4733; [8]): ≤ 0.2 µg/mL; MIC (Ent. cloacae IFO 12937; IFO12937, read-out: Minimum Inhibitory Concentration): 12.5 µg/mL; MIC (Cit. freundii GN 99; [9]): 0.78 µg/mL; MIC (Cit. freundii GN 1706; [10]): 3.13 µg/mL
Cn1nnnc1SCC1=C(C(=O)O)N2C(=O)C(NC(=O)Cc3csc(=N)n3O)[C@H]2SC1 (some centres unmarked) [Example 9, 7-[2-(2-imino-3-hydroxy-4-thiazolin-4-yl)acetamido]-3-(1-methyltetrazol-5-yl)thiomethyl-3-cephem-4-carboxylic acid]														0.04			
Cc1nsc(SCC2=C(C(=O)O)N3C(=O)C(NC(=O)Cc4csc(=N)n4O)C3SC2)n1 (centres unmarked) [Example 15, sodium 7-[2-(2-imino-3-hydroxy-4-thiazolin-4-yl)acetamido]-3-(3-methyl-1,2,4-thiadiazol-5-yl) thiomethyl-3-cephem-4-carboxylate]	0.1			0.39	6.25		0.1	1.56	≤ 0.012	0.2		0.78	12.5		0.1	0.1	
N=c1scc(CC(=O)NC2C(=O)N3C(C(=O)O)=C(CSc4nnc(C(F)(F)F)s4)CSC23)n1O (centres unmarked) [Example 16, sodium 7-[2-(2-imino-3-hydroxy-4-thiazolin-4-yl)acetamido]-3-(2-trifluorometyl-1,3,4-thiadiazol-5-yl)thiomethyl-3-cephem-4-carboxylate]				0.78	12.5		0.2	3.13	≤ 0.012	1.56		0.78	6.25		0.39	0.78	MIC (E. coli O-111; O111, read-out: Minimum Inhibitory Concentration): 0.39 µg/mL
N=c1scc(CC(=O)NC2C(=O)N3C(C(=O)O)=C(CSc4nnnn4CCO)CSC23)n1O (centres unmarked) [Example 17, sodium 7-[2-(2-imino-3-hydroxy-4-thiazolin-4-yl)acetamido]-3-[1-(2-hydroxyethyl)-1H-tetrazol-5-yl]thiomethyl-3-cephem-4-carboxylate]	0.05			0.1	1.56	0.1	0.2	0.39	≤ 0.012	0.05		0.39	12.5		0.05	0.1	
